These results are taken from ChEMBL document CHEMBL1201862, “PubChem BioAssay data set” (2004).

What all share (assay): NCI-60 cell line screen, 48 h
Test [1] concerns MOLT-4.
Test [2] has as its system SNB-19.
In test [3] the test system is UACC-62.
Test [4] has as its system UACC-257.
In test [5] the test system is NCI-H226.
The subject of test [6] is HCT-15.
The subject of test [7] is CAKI-1.
The test system of test [8] is OVCAR-8.
Test [9] concerns SF-295.
For test [10], the system named is OVCAR-4.
The subject of test [11] is A549.
Test [12] relates to NCI-H23.
Test [13] relates to SNB-75.
The subject of test [14] is NCI-H522.
For test [15], the system named is COLO 205.
Test [16] has as its system NCI-H460.
Test [17] deals with MDA-MB-231.
Test [18] deals with NCI/ADR-RES.
In test [19] the test system is MDA-N.

Molecules are shown by their SMILES.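 Where inhibition never reached the appropriate level, the endpoint shown equals the highest concentration tested. Otherwise, values were interpolated linearly from a five-concentration, 48-hour dose response in 96-well plates. At the GI50, growth is halved.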 Calls of active or inactive are those of the source. Rule as the data show it: active = GI50 up to about 1.1 µM and inactive = higher. Where only a bound is given, the exact number is not on record here.

`O=C(c1ccc2c3c(ccc(C(=O)C(F)(F)F)c13)CC2)C(F)(F)F`: the GI50 in [1] was 61.4 µM (inactive); in test [2], 86.7 µM (inactive); in test [3], 79.3 µM (inactive); in [4], 42.3 µM (inactive); in [5], > 100 µM (inactive); in test [6] it was 58.7 µM. Besides, the GI50 in test [7] is > 100 µM (inactive); in test [8] it was 47.5 µM (inactive); in test [9] it was 44.6 µM (inactive); in test [10] it was 35.1 µM (inactive); in test [11], 57.1 µM (inactive); in [12], 43.3 µM (inactive). Moreover, the GI50 is 29.4 µM (inactive) in [13], 29.8 µM (inactive) in test [14], 21.5 µM (inactive) in [15] and 69.8 µM (inactive) in [16].
For `CC(C)(C)OC(=O)n1cc(C2CN(O)C(=O)C23CCC(=O)N3Cc2ccccc2)c2ccccc21` (stereo not drawn), the GI50 in test [1] was > 100 µM (inactive); in test [2], 68.7 µM (inactive); in test [17], 28.8 µM (inactive); in test [3], 68.1 µM (inactive); in test [18], 69.5 µM (inactive); in [4], 64.1 µM (inactive). Also, the GI50 in test [5] is 24.5 µM (inactive); in [7] it was 54.6 µM (inactive); in test [9] it was 78.5 µM (inactive); in test [10], 98.9 µM (inactive); in [11], 35.3 µM (inactive); in [12] it was 61.1 µM (inactive). Besides, the GI50 is 52.7 µM (inactive) in [19]; 32.7 µM (inactive) in test [13]; 14.1 µM (inactive) in test [14]; 36.1 µM (inactive) in test [15]; 56.4 µM (inactive) in [16].
As to `CS(=O)(=O)CSCSSCS(C)(=O)=O`, the GI50 is 25.5 µM (inactive) in [1]; 74.3 µM (inactive) in test [2]; 20.7 µM (inactive) in [3]; 28.4 µM (inactive) in [4]; > 100 µM (inactive) in test [5]; 28 µM in [6]. Further, the GI50 was 25.4 µM (inactive) in [7]; 30.2 µM (inactive) in [8]; 18.2 µM (inactive) in test [9]; 33 µM (inactive) in test [10]; > 100 µM (inactive) in test [11]; 35.5 µM (inactive) in [12]. Besides, the GI50 in test [13] was > 63.4 µM (inactive); in [14], 14.9 µM (inactive); in test [15] it was 18.2 µM (inactive); in test [16], 26.2 µM (inactive).
`O=c1cc(CC(O)(C(F)(F)Cl)C(F)(F)Cl)[nH]n1-c1ccccc1`: the GI50 in [1], in test [2], in [17], in test [3], in test [18] and in test [4] was > 100 µM (inactive) throughout. Also, the GI50 in test [5] is 66.4 µM (inactive); in test [6], > 100 µM; in test [8], > 100 µM (inactive); in [9], > 100 µM (inactive); in test [10] it was > 100 µM (inactive); in [11], > 100 µM (inactive). In addition, the GI50 in test [12], in test [13], in test [15] and in test [16] was > 100 µM (inactive) each time.
For `O=C(CCc1nnc2s/c(=C\c3ccc([N+](=O)[O-])cc3)c(=O)n12)Nc1ccc(Cl)c(Cl)c1`, the GI50 is 25.1 µM (inactive) in test [1]; 72.9 µM (inactive) in test [2]; 26.5 µM (inactive) in [3]; 85.1 µM (inactive) in test [4]; 14.4 µM (inactive) in [5]; 24.7 µM in test [6]. The GI50 was 41.9 µM (inactive) in [7]; 20.1 µM (inactive) in [8]; 25.1 µM (inactive) in [9]; 18.6 µM (inactive) in [10]; 40.7 µM (inactive) in test [11]; 25.8 µM (inactive) in test [12]. Moreover, the GI50 in test [13] is 10.4 µM (inactive); in [14] it was 17.3 µM (inactive); in [15], 28.1 µM (inactive); in test [16], 46.1 µM (inactive).
As for `Cc1ccccc1NC(=O)C(=O)C(c1cnc2ccc([N+](=O)[O-])cc2n1)[N+](=O)[O-]` (stereo not drawn), the GI50 was 66.1 µM (inactive) in test [1]; > 100 µM (inactive) in [2]; 51.5 µM (inactive) in test [3]; > 100 µM (inactive) in test [4]; > 100 µM (inactive) in test [5]; > 100 µM in test [6]. Besides, the GI50 in [7], in test [8], in [9], in test [10], in [11] and in test [12] was > 100 µM (inactive) throughout. For the same compound, the GI50 in test [13] is > 100 µM (inactive); in test [14], 27.4 µM (inactive); in test [15], > 100 µM (inactive); in test [16], > 100 µM (inactive).
For `N#C/C1=C(\N)CCSSSC1`, the GI50 is 69.3 µM (inactive) in test [1]; 37.2 µM (inactive) in test [2]; 35.8 µM (inactive) in [4]; 33.6 µM (inactive) in [5]; 27.9 µM in [6]; 58.7 µM (inactive) in test [7]. Moreover, the GI50 was 21 µM (inactive) in test [8]; 19.6 µM (inactive) in [9]; 33.9 µM (inactive) in [10]; 45.2 µM (inactive) in test [11]; 32.1 µM (inactive) in test [12]; 42.3 µM (inactive) in test [13]. Further, the GI50 in test [14] was 20.9 µM (inactive); in test [15], 30.7 µM (inactive); in test [16], 23.6 µM (inactive).
Turning to `CC(=O)Nc1ccccc1[S+]([O-])c1ccccc1` (stereo not drawn), the GI50 in test [1] is > 100 µM (inactive); in [2], > 100 µM (inactive); in [3], > 100 µM (inactive); in [4], > 100 µM (inactive); in test [5], > 100 µM (inactive); in test [6] it was > 100 µM. Also, the GI50 in test [7], in test [8], in test [9], in test [10], in test [11] and in test [12] was > 100 µM (inactive) throughout. For the same compound, the GI50 in test [13] was > 100 µM (inactive); in test [14] it was 71.8 µM (inactive); in [15], > 100 µM (inactive); in [16], > 100 µM (inactive).
With `CCOC(=O)c1c(N2CCCC2)ncn(C)c1=S`, the GI50 in test [1], in [2], in [17], in [3], in test [18] and in test [4] was > 100 µM (inactive) in each case. In addition, the GI50 is > 100 µM (inactive) in test [5]; > 100 µM in [6]; > 100 µM (inactive) in test [7]; > 100 µM (inactive) in test [8]; > 100 µM (inactive) in test [9]; > 100 µM (inactive) in test [10]. Besides, the GI50 in test [11], in test [12], in test [14], in test [15] and in [16] was > 100 µM (inactive) throughout.
As for `O=C(c1ccccc1)C(c1ccccc1)C1(O)C(=O)Nc2ccccc21` (stereo not drawn), the GI50 is > 100 µM (inactive) in test [1]; > 100 µM (inactive) in test [2]; > 100 µM (inactive) in test [3]; > 100 µM (inactive) in [4]; > 100 µM (inactive) in [5]; > 100 µM in [6]. In addition, the GI50 in [7], in test [8], in test [9], in test [10], in test [11] and in test [12] was > 100 µM (inactive) in each case. Further, the GI50 in [13] was 43.6 µM (inactive); in test [14] it was > 100 µM (inactive); in [15], > 100 µM (inactive); in test [16], > 100 µM (inactive).
With `Cc1nnc2n1N=C(c1ccc(-c3ccc([N+](=O)[O-])cc3)o1)CS2`, the GI50 in test [1] was > 100 µM (inactive); in test [2] it was > 100 µM (inactive); in test [3], > 100 µM (inactive); in test [4], > 100 µM (inactive); in test [5], > 100 µM (inactive); in [6] it was > 100 µM. For the same compound, the GI50 in test [7] is > 100 µM (inactive); in test [8] it was > 100 µM (inactive); in test [9], > 100 µM (inactive); in test [10], > 100 µM (inactive); in [11] it was > 100 µM (inactive); in test [12], 35.1 µM (inactive). The GI50 in test [13], in [14], in [15] and in [16] was > 100 µM (inactive) in each case.
Turning to `CCC(=O)OC1=C(c2ccccc2)Sc2ccc(Cl)cc2-n2cccc21`, the GI50 in test [1] is 7.71 µM (inactive); in test [17], 4.47 µM (inactive); in [3] it was 8.73 µM (inactive); in test [4], > 10 µM (inactive); in test [6], 4.69 µM; in [7] it was > 10 µM (inactive). The GI50 was > 10 µM (inactive) in test [8]; 9.62 µM (inactive) in test [9]; > 10 µM (inactive) in test [10]; > 10 µM (inactive) in test [11]; 8.2 µM (inactive) in test [12]; > 10 µM (inactive) in test [13]. For the same compound, the GI50 in [15] was > 10 µM (inactive).
Turning to `c1ccc(-c2cccc(-c3ccccn3)n2)nc1` [TERPYRIDINE], the GI50 in test [1] was 0.308 µM (active); in test [2], 0.935 µM (active); in test [17] it was 0.397 µM (active); in test [3], 0.736 µM (active); in [18] it was 0.321 µM (active); in test [4], 0.425 µM (active). For the same compound, the GI50 in test [6] was 0.407 µM; in test [7], 0.527 µM (active); in test [8], 0.453 µM (active); in [9], 0.288 µM (active); in [10], 0.558 µM (active); in [11] it was 0.384 µM (active). In addition, the GI50 in [12] is 0.753 µM (active); in test [19], 0.441 µM (active); in [13] it was 1.57 µM (inactive); in [14], 0.489 µM (active); in test [15] it was 0.254 µM (active); in [16] it was 0.382 µM (active).
